System: phospho-IκBα (Ser32)
Assay: NanoBiT cell-based immunoassay, phosphorylated IκBα in MCF-7 cells
Parameters: species or system human
Details: for Raw data / Subtract reagent background: TNF
Experimental: Prior to NanoBiT Cell-Based Immunoassay, 50,000 cells were seeded in 160 µl of complete growth media per well of a 96-well plate and incubated overnight. The cells were checked under microscope and it was determined that 50,000 cells per well in 96-well plate is under 90% confluency for all cells tested. If necessary, the cell culture media were replaced with serum-free media after the cells were stably adherent on the plate and incubated overnight. To treat cells with activators or inhibitors, medium was changed to 30 µl of medium containing inhibitors. If activation of a specific pathway is needed, the cells were stimulated with 10 µl of medium containing activators. To lyse the cells, 10 µl of lysis buffer containing 0.1% digitonin diluted in 1X immunoassay buffer with protease and phosphatase inhibitors was added and the plates were mixed vigorously for 20 min. Then, 50 µl of an antibody mix containing two primary antibodies against the target protein and NanoBiT detecting antibodies (0.3 µl each per well), diluted in 1X immunoassay buffer was added to the lysates. The plates were incubated at 23 °C for 90 min, followed by the addition of 25 µl of Nano-Glo® reagent consisting of Nano-Glo® Luciferase Assay Substrate mixed with 1X immunoassay buffer. Luminescence was measured using a plate-reading luminometer.
In all, 50,000 MCF-7 cells were seeded in 160 µl complete growth medium per well of a 96-well plate and incubated overnight. Half of the cells were treated with 50 ng per ml TNFα and half with vehicle. Cells were lysed as described above and a mixture of NanoBiT secondary antibodies with primary antibodies at the matrix concentrations described in Fig. 2a were added. After 90 min incubation, the Nano-Glo® reagent was added to the reactions as described above and luminescence was measured using a plate-reading luminometer.
Single dose or dose response inhibitor treatments were performed prior to activation of the pathways as follows. For IκBα, the cells were treated in 30 µl medium with IKK16 or MG132 for 60 min before the addition of 10 µl of DMEM containing appropriate concentration of TNFα. To measure phosphorylation of AKT or STAT3, the corresponding NanoBiT immunoassays were developed with MCF-7 or A431 cells, respectively, according the same scheme used to develop the IκBα assay using the primary antibodies for AKT and STAT3 described in the reagents section. For the AKT assay, MCF-7 cells were incubated overnight in phenol-red free DMEM medium (Gibco #21063-029) without serum. Treatment with LY294002 was performed in 30 µl medium and cells were incubated for 60 min before the addition of 1 µM Insulin. To measure STAT3 phosphorylation, A431 cells were incubated overnight in DMEM medium without serum. […] After addition of the stimulators, the cells were incubated for additional times as follows. IκBα phosphorylation and degradation analyses required both time courses and single time points as described in figures. […] The NanoBiT immunoassay protocol was followed as described above.
All 96-well assay plates were read using a GloMax® 96 Microplate Luminometer from Promega. The instrument was set to 0.5 s integration time. In order to obtain net change of signal, the reagent background values (signal from the well containing all reagent except primary antibodies) were subtracted from the sample values. To plot and analyze the data, Microsoft Excel and GraphPad Prism® Software were used. IC50 values were determined by using a nonlinear regression fit to a sigmoidal dose response (variable slope).

[1] = plate #3, IkB Ab #3 75 ng/ml, P-IkB Ab #2 75 ng/ml
[2] = plate #3, IkB Ab #3 75 ng/ml, P-IkB Ab #2 150 ng/ml
[3] = plate #3, IkB Ab #3 75 ng/ml, P-IkB Ab #2 300 ng/ml
[4] = plate #3, IkB Ab #3 75 ng/ml, P-IkB Ab #2 600 ng/ml
[5] = plate #3, IkB Ab #3 75 ng/ml, P-IkB Ab #2 1200 ng/ml
[6] = plate #3, IkB Ab #3 150 ng/ml, P-IkB Ab #2 75 ng/ml
[7] = plate #3, IkB Ab #3 150 ng/ml, P-IkB Ab #2 150 ng/ml
[8] = plate #3, IkB Ab #3 150 ng/ml, P-IkB Ab #2 300 ng/ml
[9] = plate #3, IkB Ab #3 150 ng/ml, P-IkB Ab #2 600 ng/ml
[10] = plate #3, IkB Ab #3 150 ng/ml, P-IkB Ab #2 1200 ng/ml
[11] = plate #3, IkB Ab #3 300 ng/ml, P-IkB Ab #2 75 ng/ml
[12] = plate #3, IkB Ab #3 300 ng/ml, P-IkB Ab #2 150 ng/ml
[13] = plate #3, IkB Ab #3 300 ng/ml, P-IkB Ab #2 300 ng/ml
[14] = plate #3, IkB Ab #3 300 ng/ml, P-IkB Ab #2 600 ng/ml
[15] = plate #3, IkB Ab #3 300 ng/ml, P-IkB Ab #2 1200 ng/ml
[16] = plate #3, IkB Ab #3 600 ng/ml, P-IkB Ab #2 75 ng/ml
[17] = plate #3, IkB Ab #3 600 ng/ml, P-IkB Ab #2 150 ng/ml
[18] = plate #3, IkB Ab #3 600 ng/ml, P-IkB Ab #2 300 ng/ml
[19] = plate #3, IkB Ab #3 600 ng/ml, P-IkB Ab #2 600 ng/ml
[20] = plate #3, IkB Ab #3 600 ng/ml, P-IkB Ab #2 1200 ng/ml
[21] = plate #3, IkB Ab #3 1200 ng/ml, P-IkB Ab #2 75 ng/ml
[22] = plate #3, IkB Ab #3 1200 ng/ml, P-IkB Ab #2 150 ng/ml
[23] = plate #3, IkB Ab #3 1200 ng/ml, P-IkB Ab #2 300 ng/ml
[24] = plate #3, IkB Ab #3 1200 ng/ml, P-IkB Ab #2 600 ng/ml
[25] = plate #3, IkB Ab #3 1200 ng/ml, P-IkB Ab #2 1200 ng/ml

## TNFα
Plate #2, IkB Ab #2 (Mouse) 600 ng/ml, P-IkB Ab #1 (Rabbit) 1200 ng/ml, listed as TNF
  Fold change (TNF-treated /Non-treated): 0.8
Plate #2, IkB Ab #2 (Mouse) 1200 ng/ml, P-IkB Ab #1 (Rabbit) 75 ng/ml
  Fold change (TNF-treated /Non-treated): 1.511
Plate #2, IkB Ab #2 (Mouse) 1200 ng/ml, P-IkB Ab #1 (Rabbit) 75 ng/ml, listed as TNF
  Fold change (TNF-treated /Non-treated): 1.5
Plate #2, IkB Ab #2 (Mouse) 1200 ng/ml, P-IkB Ab #1 (Rabbit) 150 ng/ml
  Fold change (TNF-treated /Non-treated): 2.468
Plate #2, IkB Ab #2 (Mouse) 1200 ng/ml, P-IkB Ab #1 (Rabbit) 150 ng/ml, listed as TNF
  Fold change (TNF-treated /Non-treated): 2.5
Plate #2, IkB Ab #2 (Mouse) 1200 ng/ml, P-IkB Ab #1 (Rabbit) 300 ng/ml
  Fold change (TNF-treated /Non-treated): 2.168
Plate #2, IkB Ab #2 (Mouse) 1200 ng/ml, P-IkB Ab #1 (Rabbit) 300 ng/ml, listed as TNF
  Fold change (TNF-treated /Non-treated): 2.2
Plate #2, IkB Ab #2 (Mouse) 1200 ng/ml, P-IkB Ab #1 (Rabbit) 600 ng/ml
  Fold change (TNF-treated /Non-treated): 2.1086
Plate #2, IkB Ab #2 (Mouse) 1200 ng/ml, P-IkB Ab #1 (Rabbit) 600 ng/ml, listed as TNF
  Fold change (TNF-treated /Non-treated): 2.1
Plate #2, IkB Ab #2 (Mouse) 1200 ng/ml, P-IkB Ab #1 (Rabbit) 1200 ng/ml
  Fold change (TNF-treated /Non-treated): 1.784
Plate #2, IkB Ab #2 (Mouse) 1200 ng/ml, P-IkB Ab #1 (Rabbit) 1200 ng/ml, listed as TNF
  Fold change (TNF-treated /Non-treated): 1.8
[1]
  Raw data: 20510
  Subtract reagent background: 5320
[2]
  Raw data: 20430
  Subtract reagent background: 5240
[3]
  Raw data: 19120
  Subtract reagent background: 3930
[4]
  Raw data: 17590
  Subtract reagent background: 2400
[5]
  Raw data: 16090
  Subtract reagent background: 900
[6]
  Raw data: 27550
  Subtract reagent background: 12360
[7]
  Raw data: 26450
  Subtract reagent background: 11260
[8]
  Raw data: 24490
  Subtract reagent background: 9300
[9]
  Raw data: 21590
  Subtract reagent background: 6400
[10]
  Raw data: 19970
  Subtract reagent background: 4780
[11]
  Raw data: 26220
  Subtract reagent background: 11030
[12]
  Raw data: 24040
  Subtract reagent background: 8850
[13]
  Raw data: 23970
  Subtract reagent background: 8780
[14]
  Raw data: 20830
  Subtract reagent background: 5640
[15]
  Raw data: 19500
  Subtract reagent background: 4310
[16]
  Raw data: 24590
  Subtract reagent background: 9400
[17]
  Raw data: 22810
  Subtract reagent background: 7620
[18]
  Raw data: 23190
  Subtract reagent background: 8000
[19]
  Raw data: 21540
  Subtract reagent background: 6350
[20]
  Raw data: 20460
  Subtract reagent background: 5270
[21]
  Raw data: 23630
  Subtract reagent background: 8440
[22]
  Raw data: 23620
  Subtract reagent background: 8430
[23]
  Raw data: 22930
  Subtract reagent background: 7740
[24]
  Raw data: 22240
  Subtract reagent background: 7050
[25]
  Raw data: 21740
  Subtract reagent background: 6550
Plate #3, IkB Ab #3 (Rabbit) 150 ng/ml, P-IkB Ab #2 (Mouse) 75 ng/ml
  Fold change (TNF-treated /Non-treated): 3.572
Plate #3, IkB Ab #3 (Rabbit) 150 ng/ml, P-IkB Ab #2 (Mouse) 150 ng/ml
  Fold change (TNF-treated /Non-treated): 2.066
Plate #3, IkB Ab #3 (Rabbit) 150 ng/ml, P-IkB Ab #2 (Mouse) 300 ng/ml
  Fold change (TNF-treated /Non-treated): 1.553
Plate #3, IkB Ab #3 (Rabbit) 150 ng/ml, P-IkB Ab #2 (Mouse) 600 ng/ml
  Fold change (TNF-treated /Non-treated): 1.339
Plate #3, IkB Ab #3 (Rabbit) 150 ng/ml, P-IkB Ab #2 (Mouse) 1200 ng/ml
  Fold change (TNF-treated /Non-treated): 0.8968
Plate #3, IkB Ab #3 (Rabbit) 300 ng/ml, P-IkB Ab #2 (Mouse) 75 ng/ml
  Fold change (TNF-treated /Non-treated): 2.895
Plate #3, IkB Ab #3 (Rabbit) 300 ng/ml, P-IkB Ab #2 (Mouse) 150 ng/ml
  Fold change (TNF-treated /Non-treated): 1.664
Plate #3, IkB Ab #3 (Rabbit) 300 ng/ml, P-IkB Ab #2 (Mouse) 300 ng/ml
  Fold change (TNF-treated /Non-treated): 1.602
Plate #3, IkB Ab #3 (Rabbit) 300 ng/ml, P-IkB Ab #2 (Mouse) 600 ng/ml
  Fold change (TNF-treated /Non-treated): 1.153
Plate #3, IkB Ab #3 (Rabbit) 300 ng/ml, P-IkB Ab #2 (Mouse) 1200 ng/ml
  Fold change (TNF-treated /Non-treated): 0.9289
Plate #3, IkB Ab #3 (Rabbit) 600 ng/ml, P-IkB Ab #2 (Mouse) 75 ng/ml
  Fold change (TNF-treated /Non-treated): 2.035
Plate #3, IkB Ab #3 (Rabbit) 600 ng/ml, P-IkB Ab #2 (Mouse) 150 ng/ml
  Fold change (TNF-treated /Non-treated): 1.414
Plate #3, IkB Ab #3 (Rabbit) 600 ng/ml, P-IkB Ab #2 (Mouse) 300 ng/ml
  Fold change (TNF-treated /Non-treated): 1.541
Plate #3, IkB Ab #3 (Rabbit) 600 ng/ml, P-IkB Ab #2 (Mouse) 600 ng/ml
  Fold change (TNF-treated /Non-treated): 1.301
Plate #3, IkB Ab #3 (Rabbit) 600 ng/ml, P-IkB Ab #2 (Mouse) 1200 ng/ml
  Fold change (TNF-treated /Non-treated): 1.1557
Plate #3, IkB Ab #3 (Rabbit) 1200 ng/ml, P-IkB Ab #2 (Mouse) 75 ng/ml
  Fold change (TNF-treated /Non-treated): 1.581
Plate #3, IkB Ab #3 (Rabbit) 1200 ng/ml, P-IkB Ab #2 (Mouse) 150 ng/ml
  Fold change (TNF-treated /Non-treated): 1.544
Plate #3, IkB Ab #3 (Rabbit) 1200 ng/ml, P-IkB Ab #2 (Mouse) 300 ng/ml
  Fold change (TNF-treated /Non-treated): 1.173
Plate #3, IkB Ab #3 (Rabbit) 1200 ng/ml, P-IkB Ab #2 (Mouse) 600 ng/ml
  Fold change (TNF-treated /Non-treated): 1.469
Plate #3, IkB Ab #3 (Rabbit) 1200 ng/ml, P-IkB Ab #2 (Mouse) 1200 ng/ml
  Fold change (TNF-treated /Non-treated): 1.2818

Source: publication PMC6941952, “A homogeneous bioluminescent immunoassay to probe cellular signaling pathway regulation” (Communications Biology, 2020)
